Values after ≈ are worked out from the molar mass of the structure shown.
How the values were obtained:
P. aeruginosa = assay: microbe, parasite or virus in culture; assay type: cell-based, Pseudomonas aeruginosa; details: Pseudomonas aeruginosa; P. aeruginosa; Supplementary Table 5; read-out: Minimum inhibitory Concentrations MICs
Experimental: (§1) To determine the antimicrobial activity of the new antimicrobial peptides, HG2 and HG4, their minimum inhibitory concentrations (MICs) were determined by broth microdilution method[51] in cation adjusted Mueller Hinton broth (MHB) following the International Organisation for Standardisation (ISO) 20776-1 standard for MIC testing using a final bacterial inoculum of 5 × 10^5 CFU/ml[52]. […] The peptides dissolved in sterile distilled water were added to bacteria culture and incubated overnight at appropriate conditions. The MICs of the peptides and comparator antibiotics were recorded after 18–24 h. The minimum bactericidal concentrations (MBCs) were also determined and were taken as the lowest concentration of the antimicrobial that prevented the growth of bacterial cells after the subculture of cells (from MIC treatment) onto antibiotic-free media.

[1] = system: P. aeruginosa (CF) AMT0060; assay: microbe, parasite or virus in culture; assay type: cell-based, Pseudomonas aeruginosa; details: Pseudomonas aeruginosa; P. aeruginosa (CF) AMT0060; read-out: MIC
Experimental: as §1

[2] = system: P. aeruginosa (CF) LES400; assay: microbe, parasite or virus in culture; assay type: cell-based, Pseudomonas aeruginosa; details: Pseudomonas aeruginosa; P. aeruginosa (CF) LES400; read-out: MIC
Experimental: as §1

P. aeruginosa PA01 = assay: microbe, parasite or virus in culture; assay type: cell-based, Pseudomonas aeruginosa; details: Pseudomonas aeruginosa; P. aeruginosa PA01; read-out: MIC
Experimental: as §1

P. aeruginosa (CF) C3719 = assay: microbe, parasite or virus in culture; assay type: cell-based, Pseudomonas aeruginosa; details: Pseudomonas aeruginosa; P. aeruginosa (CF) C3719; read-out: MIC
Experimental: as §1

[3] = system: L. monocytogenes NCTC 11994; assay: microbe, parasite or virus in culture; assay type: cell-based, Listeria monocytogenes; details: Listeria monocytogenes, NCTC11994; L. monocytogenes NCTC 11994; read-out: MIC
Experimental: as §1

List. monocytogenes = assay: microbe, parasite or virus in culture; assay type: cell-based, Listeria monocytogenes; details: Listeria monocytogenes; List. monocytogenes; Supplementary Table 5; read-out: Minimum inhibitory Concentrations MICs
Experimental: as §1

A. baumannii 515722 = assay: microbe, parasite or virus in culture; assay type: cell-based, Acinetobacter baumannii; details: Acinetobacter baumannii; A. baumannii 515722; sensitive; read-out: MIC
Experimental: as §1

[4] = system: A. baumannii (IMI, MER resistant; strain ID not given); assay: microbe, parasite or virus in culture; assay type: cell-based, Acinetobacter baumannii; details: Acinetobacter baumannii, A. baumannii, no strain ID, MER, read-out: MIC
Experimental: as §1

A. baumannii 515785 = assay: microbe, parasite or virus in culture; assay type: cell-based, Acinetobacter baumannii; details: Acinetobacter baumannii, 515785
Experimental: as §1

A. baumannii 515908 = assay: microbe, parasite or virus in culture; assay type: cell-based, Acinetobacter baumannii; details: Acinetobacter baumannii; A. baumannii 515908; sensitive; read-out: MIC
Experimental: as §1

EMRA-15 = assay: microbe, parasite or virus in culture; assay type: cell-based, Staphylococcus aureus; details: Staphylococcus aureus; EMRA-15; Supplementary Table 5; read-out: Minimum inhibitory Concentrations MICs
Experimental: as §1

S. aureus EMRSA-15 = assay: microbe, parasite or virus in culture; assay type: cell-based, Staphylococcus aureus; details: Staphylococcus aureus; S. aureus EMRSA-15; resistances MRSA, Cip; read-out: MIC
Experimental: as §1

S. aureus = assay: microbe, parasite or virus in culture; assay type: cell-based, Staphylococcus aureus; details: Staphylococcus aureus, read-out: Minimum inhibitory Concentrations MICs
Experimental: as §1

S. aureus RN4220 = assay: MIC, broth microdilution; assay type: cell-based, Staphylococcus aureus; details: Staphylococcus aureus, sensitive, read-out: MIC
Experimental: as §1

E. coli = assay: microbe, parasite or virus in culture; assay type: cell-based, Escherichia coli; details: Escherichia coli, read-out: Minimum inhibitory Concentrations MICs
Experimental: as §1

E. coli K12 = assay: microbe, parasite or virus in culture; assay type: cell-based, Escherichia coli; details: Escherichia coli; E. coli K12; read-out: MIC
Experimental: as §1

Ent. faecalis = assay: microbe, parasite or virus in culture; assay type: cell-based, Enterococcus faecalis; details: Enterococcus faecalis; Ent. faecalis; Supplementary Table 5; read-out: Minimum inhibitory Concentrations MICs
Experimental: as §1

Ent. faecalis JH2-2 = assay: microbe, parasite or virus in culture; assay type: cell-based, Enterococcus faecalis; details: Enterococcus faecalis, JH22; Ent. faecalis JH2-2; read-out: MIC
Experimental: as §1

B. cereus = assay: microbe, parasite or virus in culture; assay type: cell-based, Bacillus cereus; details: Bacillus cereus; B. cereus; read-out: MIC
Experimental: as §1

K. pneumoniae 518842 = assay: microbe, parasite or virus in culture; assay type: cell-based, Klebsiella pneumoniae; details: Klebsiella pneumoniae, 518842
Experimental: as §1

K. pneumoniae 526903 = assay: microbe, parasite or virus in culture; assay type: cell-based, Klebsiella pneumoniae; details: Klebsiella pneumoniae; K. pneumoniae 526903; sensitive; read-out: MIC
Experimental: as §1

[5] = system: K. pneumoniae ATCC 700603; assay: microbe, parasite or virus in culture; assay type: cell-based, Klebsiella pneumoniae; details: Klebsiella pneumoniae, ATCC700603; K. pneumoniae ATCC 700603; SHV-18; read-out: MIC
Experimental: as §1

K. pneumoniae NCTC 13442 = assay: microbe, parasite or virus in culture; assay type: cell-based, Klebsiella pneumoniae; details: Klebsiella pneumoniae, NCTC13442; K. pneumoniae NCTC 13442; OXA-48; read-out: MIC
Experimental: as §1

Sal. typhimurium = assay: microbe, parasite or virus in culture; assay type: cell-based, Salmonella enterica serovar Typhimurium; details: Salmonella enterica; Sal. typhimurium; Supplementary Table 5; read-out: Minimum inhibitory Concentrations MICs
Experimental: as §1

Sal. typhimurium SL1344 = assay: microbe, parasite or virus in culture; assay type: cell-based, Salmonella enterica serovar Typhimurium; details: Salmonella enterica; Sal. typhimurium SL1344; read-out: MIC
Experimental: as §1

Structure (SMILES): O=C(O)c1cn(C2CC2)c2cc(N3CCNCC3)c(F)cc2c1=O [Cip, ciprofloxacin, reference compound]
- MIC (P. aeruginosa): 0.49 µg/mL (≈ 1.48 µM)
- MIC [1]: 0.12 µg/mL (≈ 0.362 µM)
- MIC [2]: 4 µg/mL (≈ 12.1 µM)
- MIC (P. aeruginosa PA01): 0.5 µg/mL (≈ 1.51 µM)
- MIC (P. aeruginosa (CF) C3719): 4 µg/mL (≈ 12.1 µM)
- MIC [3]: 64 µg/mL (≈ 193 µM)
- MIC (List. monocytogenes): 62.5 µg/mL (≈ 189 µM)
- MIC (A. baumannii 515722): 16 µg/mL (≈ 48.3 µM)
- MIC [4]: 16 µg/mL (≈ 48.3 µM)
- MIC (A. baumannii 515785): > 128 µg/mL
- MIC (A. baumannii 515908): 16 µg/mL (≈ 48.3 µM)
- MIC (EMRA-15): > 250 µg/mL
- MIC (S. aureus EMRSA-15): > 256 µg/mL
- MIC (S. aureus): > 250 µg/mL
- MIC (S. aureus RN4220): > 256 µg/mL
- MIC (E. coli): 0.06 µg/mL (≈ 0.181 µM)
- MIC (E. coli K12): 0.06 µg/mL (≈ 0.181 µM)
- MIC (Ent. faecalis): 62.5 µg/mL (≈ 189 µM)
- MIC (Ent. faecalis JH2-2): 64 µg/mL (≈ 193 µM)
- MIC (B. cereus): 0.015 µg/mL (≈ 0.0453 µM)
- MIC (K. pneumoniae 518842): > 128 µg/mL
- MIC (K. pneumoniae 526903): 0.03 µg/mL (≈ 0.0905 µM)
- MIC [5]: 0.25 µg/mL (≈ 0.754 µM)
- MIC (K. pneumoniae NCTC 13442): 64 µg/mL (≈ 193 µM)
- MIC (Sal. typhimurium): 0.12 µg/mL (≈ 0.362 µM)
- MIC (Sal. typhimurium SL1344): 0.12 µg/mL (≈ 0.362 µM)
